Source: patent publication US10407467B2, “Polymyxin derivatives and their use in combination therapy together with different antibiotics” (priority 2013, dated 2019)
Like-named read-outs stand apart in the source and are kept apart here. Marks after values point to notes of the source that are not given here.

Tests used:
Acinetobacter baumannii [1] = experiment: MIC, sole activity (no second agent); type: cell-based
Summary of the method: (§1)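 Up to four strains per species were tested in cation-adjusted Mueller-Hinton broth, with inoculum made by direct colony suspension from 18-24 hour Mueller-Hinton agar plates, adjusted to 0.5 McFarland. Duplicates differing by under 2-fold gave the lower value; greater spread voided the run. Values are relative to Polymyxin B.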

Klebsiella pneumoniae [2] = experiment: MIC, sole activity (no second agent); type: cell-based
Summary of the method: as §1

Escherichia coli [3] = experiment: MIC, sole activity (no second agent); type: cell-based
Summary of the method: as §1

Pseudomonas aeruginosa [4] = experiment: MIC, sole activity (no second agent); type: cell-based
Summary of the method: as §1

Acinetobacter baumannii [5] = experiment: MIC, compound in combination with a second agent (broth microdilution); type: cell-based
Summary of the method: (§2)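 Read-out is the total-drug MIC of a 1:1 weight ratio combination with another agent, e.g. rifampicin. Duplicates within 2-fold gave the lower value; wider spread meant a non-valid assay. Where compounds were tested multiple times, the mode is given.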

Klebsiella pneumoniae [6] = experiment: as above; type: cell-based; details: for MIC K. pneumoniae ATCC 4352 / MIC K. pneumoniae CCUG 59349: total drug concentration
Summary of the method: as §2

Escherichia coli [7] = experiment: as above; type: cell-based
Summary of the method: as §2

Pseudomonas aeruginosa [8] = experiment: as above; type: cell-based; details: for MIC P. aeruginosa ATCC 10145: total drug concentration
Summary of the method: as §2

[9] = tested on: Escherichia coli isolate ATCC25922; details: subcutaneous BID
[10] = Table 6A, no second agent, different supplier of Cation-adjusted MHB
[11] = 1:1 combination with Aztreonam, total drug concentration

Substance: Polymyxin B [reference compound]
- MIC A. baumannii NCTC 13424 (Acinetobacter baumannii [1]; Second Agent none (Table 7E)): 0.125 micrograms/mL
- MIC A. baumannii ATCC BAA-747 (Acinetobacter baumannii [1]; [10]): 0.25 micrograms/mL
- MIC A. baumannii NCTC 13424 (Acinetobacter baumannii [1]; [10]): 0.5 micrograms/mL
- MIC A. baumannii NCTC 13424 (Acinetobacter baumannii [1]; Table 7F, A. baumannii NCTC 13424, second agent none): 0.125 micrograms/mL
- MIC A. baumannii NCTC 13424 (Acinetobacter baumannii [1]; Table 7H, A. baumannii NCTC 13424, second agent none): 0.125 micrograms/mL
- MIC A. baumannii ATCC13424 (Acinetobacter baumannii [1]; in the absence of Rifampicin, strain ATCC13424): 1 micrograms/mL
- MIC A. baumannii ATCCBAA-747 (Acinetobacter baumannii [1]; in the absence of Rifampicin, strain ATCCBAA-747): 0.5 micrograms/mL
- MIC A. baumannii CCUG57249 (Acinetobacter baumannii [1]; in the absence of Rifampicin, strain CCUG 57249): 1 micrograms/mL
- MIC A. baumannii NCTC 13423 (Acinetobacter baumannii [1]; in the absence of Rifampicin, strain NCTC13423): 0.5 micrograms/mL
- MIC K. pneumoniae CCUG 59349 (Klebsiella pneumoniae [2]; Second Agent none (Table 7E)): 0.5 micrograms/mL
- MIC K. pneumoniae ATCC 4352 (Klebsiella pneumoniae [2]; [10]): 0.25 micrograms/mL
- MIC K. pneumoniae ATCC BAA-2146 (Klebsiella pneumoniae [2]; [10]): 0.5 micrograms/mL
- MIC K. pneumoniae CCUG 59349 (Klebsiella pneumoniae [2]; Table 7F, K. pneumoniae CCUG 59349, second agent none): 0.5 micrograms/mL
- MIC K. pneumoniae CCUG 59349 (Klebsiella pneumoniae [2]; Table 7H, K. pneumoniae CCUG 59349, second agent none): 0.5 micrograms/mL
- MIC K. pneumoniae ATCC 4352 (Klebsiella pneumoniae [2]; in the absence of Rifampicin, strain ATCC 4352): 1 micrograms/mL
- MIC K. pneumoniae ATCC-BAA2146 (Klebsiella pneumoniae [2]; in the absence of Rifampicin, strain ATCC-BAA2146): 2 micrograms/mL
- MIC K. pneumoniae CCUG-59348 (Klebsiella pneumoniae [2]; in the absence of Rifampicin, strain CCUG-59348): 16 micrograms/mL
- MIC K. pneumoniae NCTC-13438 (Klebsiella pneumoniae [2]; in the absence of Rifampicin, strain NCTC-13438): 1 micrograms/mL
- MIC E. coli ATCC25922 (Escherichia coli [3]; Second Agent none (Table 7E)): 0.5 micrograms/mL
- MIC E. coli NCTC 13441 (Escherichia coli [3]; Second Agent none (Table 7E)): 1 micrograms/mL
- MIC E. coli ATCC25922 (Escherichia coli [3]; [10]): 0.25 micrograms/mL
- MIC E. coli NCTC 13441 (Escherichia coli [3]; [10]): 0.25 micrograms/mL
- MIC E. coli ATCC25922 (Escherichia coli [3]; Table 7F, E. coli ATCC25922, second agent none): 0.5 micrograms/mL
- MIC E. coli NCTC 13441 (Escherichia coli [3]; Table 7F, E. coli NCTC 13441, second agent none): 1 micrograms/mL
- MIC E. coli ATCC25922 (Escherichia coli [3]; Table 7G, E. coli ATCC25922, second agent none): 0.5 micrograms/mL
- MIC E. coli ATCC25922 (Escherichia coli [3]; Table 7H, E. coli ATCC25922, second agent none): 0.5 micrograms/mL
- MIC E. coli NCTC 13441 (Escherichia coli [3]; Table 7H, E. coli NCTC 13441, second agent none): 1 micrograms/mL
- MIC E. coli ATCC25922 (Escherichia coli [3]; Table 7I, E. coli ATCC25922, second agent none): 0.5 micrograms/mL
- MIC E. coli ATCC25922 (Escherichia coli [3]; in the absence of Rifampicin, strain ATCC25922): 1 micrograms/mL
- MIC E. coli NCTC9001 (Escherichia coli [3]; in the absence of Rifampicin, strain NCTC9001): 1 micrograms/mL
- MIC P. aeruginosa ATCC 10145 (Pseudomonas aeruginosa [4]; Second Agent none (Table 7E)): 0.5 micrograms/mL
- MIC P. aeruginosa ATCC 27853 (Pseudomonas aeruginosa [4]; [10]): 0.5 micrograms/mL
- MIC P. aeruginosa CCUG 59347 (Pseudomonas aeruginosa [4]; [10]): 0.5 micrograms/mL
- MIC P. aeruginosa ATCC 10145 (Pseudomonas aeruginosa [4]; Table 7F, P. aeruginosa ATCC 10145, second agent none): 0.5 micrograms/mL
- MIC P. aeruginosa ATCC 10145 (Pseudomonas aeruginosa [4]; Table 7H, P. aeruginosa ATCC 10145, second agent none): 0.5 micrograms/mL
- MIC P. aeruginosa ATCC 27853 (Pseudomonas aeruginosa [4]; in the absence of Rifampicin, strain ATCC27853): 0.5 micrograms/mL
- MIC P. aeruginosa ATCC-47 (Pseudomonas aeruginosa [4]; in the absence of Rifampicin, strain ATCC-47): 2 micrograms/mL
- MIC P. aeruginosa ATCCCRM-9027 (Pseudomonas aeruginosa [4]; in the absence of Rifampicin, strain ATCCCRM-9027): 0.25 micrograms/mL
- MIC P. aeruginosa CCUG 59626 (Pseudomonas aeruginosa [4]; in the absence of Rifampicin, strain CCUG 59626): 0.5 micrograms/mL
- MIC A. baumannii ATCC BAA-747 (Acinetobacter baumannii [5]; 1:1 (wt:wt) combination with Rifampicin, MIC = total drug concentration, strain ATCC BAA-747): 0.125 micrograms/mL
- MIC A. baumannii CCUG57249 (Acinetobacter baumannii [5]; 1:1 (wt:wt) combination with Rifampicin, MIC = total drug concentration, strain CCUG57249): 0.25 micrograms/mL
- MIC A. baumannii NCTC 13423 (Acinetobacter baumannii [5]; 1:1 (wt:wt) combination with Rifampicin, MIC = total drug concentration, strain NCTC 13423): 0.125 micrograms/mL
- MIC A. baumannii NCTC 13424 (Acinetobacter baumannii [5]; 1:1 (wt:wt) combination with Rifampicin, MIC = total drug concentration, strain NCTC 13424): 0.5 micrograms/mL
- MIC A. baumannii NCTC 13424 (Acinetobacter baumannii [5]; [11]): 1 micrograms/mL
- MIC A. baumannii NCTC 13424 (Acinetobacter baumannii [5]; A. baumannii NCTC 13424, 1:1 combination with Azithromycin, total drug concentration): 1 micrograms/mL
- MIC A. baumannii NCTC 13424 (Acinetobacter baumannii [5]; A. baumannii NCTC 13424, 1:1 combination with Novobiocin, total drug concentration): 0.125 micrograms/mL
- MIC K. pneumoniae ATCC-BAA-2146 (Klebsiella pneumoniae [6]; 1:1 (wt:wt) combination with Rifampicin, MIC = total drug concentration, strain ATCC-BAA-2146): 1 micrograms/mL
- MIC K. pneumoniae CCUG-59348 (Klebsiella pneumoniae [6]; 1:1 (wt:wt) combination with Rifampicin, MIC = total drug concentration, strain CCUG-59348): 1 micrograms/mL
- MIC K. pneumoniae NCTC 13438 (Klebsiella pneumoniae [6]; 1:1 (wt:wt) combination with Rifampicin, MIC = total drug concentration, strain NCTC 13438): 1 micrograms/mL
- MIC K. pneumoniae ATCC 4352 (Klebsiella pneumoniae [6]; 1:1 combination with Aztreonam): ≤0.06 micrograms/mL
- MIC K. pneumoniae CCUG 59349 (Klebsiella pneumoniae [6]; 1:1 combination with Aztreonam): 2 micrograms/mL
- MIC K. pneumoniae ATCC 4352 (Klebsiella pneumoniae [6]; K. pneumoniae ATCC4352, 1:1 combination with Azithromycin): 0.25 micrograms/mL
- MIC K. pneumoniae ATCC 4352 (Klebsiella pneumoniae [6]; K. pneumoniae ATCC4352, 1:1 combination with Fusidic acid): 1 micrograms/mL
- MIC K. pneumoniae ATCC 4352 (Klebsiella pneumoniae [6]; K. pneumoniae ATCC4352, 1:1 combination with Novobiocin): 0.25 micrograms/mL
- MIC K. pneumoniae ATCC 4352 (Klebsiella pneumoniae [6]; K. pneumoniae ATCC4352, 1:1 combination with Oxacillin): 4 micrograms/mL
- MIC K. pneumoniae CCUG 59349 (Klebsiella pneumoniae [6]; K. pneumoniae CCUG 59349, 1:1 combination with Azithromycin): 2 micrograms/mL
- MIC K. pneumoniae CCUG 59349 (Klebsiella pneumoniae [6]; K. pneumoniae CCUG 59349, 1:1 combination with Novobiocin): 1 micrograms/mL
- MIC E. coli ATCC25922 (Escherichia coli [7]; 1:1 (wt:wt) combination with Rifampicin, MIC = total drug concentration, strain ATCC25922): 0.25 micrograms/mL
- MIC E. coli NCTC9001 (Escherichia coli [7]; 1:1 (wt:wt) combination with Rifampicin, MIC = total drug concentration, strain NCTC9001): 0.5 micrograms/mL
- MIC E. coli ATCC25922 (Escherichia coli [7]; [11]): 0.125 micrograms/mL
- MIC E. coli NCTC 13441 (Escherichia coli [7]; [11]): 1 micrograms/mL
- MIC E. coli ATCC25922 (Escherichia coli [7]; E. coli ATCC25922, 1:1 combination with Azithromycin, total drug concentration): 0.25 micrograms/mL
- MIC E. coli ATCC25922 (Escherichia coli [7]; E. coli ATCC25922, 1:1 combination with Fusidic acid, total drug concentration): 2 micrograms/mL
- MIC E. coli ATCC25922 (Escherichia coli [7]; E. coli ATCC25922, 1:1 combination with Novobiocin, total drug concentration): 0.5 micrograms/mL
- MIC E. coli ATCC25922 (Escherichia coli [7]; E. coli ATCC25922, 1:1 combination with Oxacillin, total drug concentration): 2 micrograms/mL
- MIC E. coli NCTC 13441 (Escherichia coli [7]; E. coli NCTC 13441, 1:1 combination with Azithromycin, total drug concentration): 1 micrograms/mL
- MIC E. coli NCTC 13441 (Escherichia coli [7]; E. coli NCTC 13441, 1:1 combination with Novobiocin, total drug concentration): 1 micrograms/mL
- MIC P. aeruginosa ATCC 27853 (Pseudomonas aeruginosa [8]; 1:1 (wt:wt) combination with Rifampicin, MIC = total drug concentration, strain ATCC 27853): 0.5 micrograms/mL
- MIC P. aeruginosa ATCC CRM-9027 (Pseudomonas aeruginosa [8]; 1:1 (wt:wt) combination with Rifampicin, MIC = total drug concentration, strain ATCC CRM-9027): 0.25 micrograms/mL
- MIC P. aeruginosa ATCC-47 (Pseudomonas aeruginosa [8]; 1:1 (wt:wt) combination with Rifampicin, MIC = total drug concentration, strain ATCC-47): 0.5 micrograms/mL
- MIC P. aeruginosa CCUG 59626 (Pseudomonas aeruginosa [8]; 1:1 (wt:wt) combination with Rifampicin, MIC = total drug concentration, strain CCUG 59626): 0.5 micrograms/mL
- MIC P. aeruginosa ATCC 10145 (Pseudomonas aeruginosa [8]; 1:1 combination with Aztreonam): 1 micrograms/mL
- MIC P. aeruginosa ATCC 10145 (Pseudomonas aeruginosa [8]; P. aeruginosa ATCC 10145, 1:1 combination with Azithromycin): 1 micrograms/mL
- MIC P. aeruginosa ATCC 10145 (Pseudomonas aeruginosa [8]; P. aeruginosa ATCC 10145, 1:1 combination with Novobiocin): 1 micrograms/mL
- Mean log10 CFU reduction vs. control ([9]; Table 11, total daily dosage 3 mg/kg (sulfate salt), 24 h post-infection): 2.5 ^a log10 CFU
- Mean log10 CFU reduction vs. control ([9]; Table 11, total daily dosage 10 mg/kg (sulfate salt), 24 h post-infection): 4.2 ^a log10 CFU
- Mean log10 CFU reduction vs. control ([9]; Table 11A, separate study, total daily dosage 3 mg/kg (sulfate salt)): 3.75 log10 CFU
- Mean log10 CFU reduction vs. control ([9]; Table 11A, separate study, total daily dosage 10 mg/kg (sulfate salt)): 4.87 log10 CFU
